Laboratory results taken from BigSolDB 2.1.

C[C@H]1COc2c(N3CCN(C)CC3)c(F)c(N)c3c(=O)c(C(=O)O)cn1c23.Cl
solubility (mole fraction)
Details | 273.15 K | 278.15 K | 283.15 K | 288.15 K | 293.15 K | 298.15 K | 303.15 K | 308.15 K | 313.15 K | 318.15 K
in acetonitrile | 2.41e-06 | 2.73e-06 | 3.11e-06 | 3.59e-06 | 4.1e-06 | 4.68e-06 | 5.36e-06 | 6.07e-06 | 6.9e-06 | 7.84e-06
in ethanol | 9.29e-06 | 1.06e-05 | 1.22e-05 | 1.39e-05 | 1.59e-05 | 1.78e-05 | 2.02e-05 | 2.29e-05 | 2.56e-05 | 2.87e-05
in water | 0.000436 | 0.000564 | 0.000725 | 0.000971 | 0.00126 | 0.00161 | 0.00204 | 0.00253 | 0.00311 | 0.00376
